Source: patent US4156724A, “N-acylamino-alpha-arylacetamido cephalosporins and antibacterial compositions and methods containing them” (Sumitomo Chemical Company, Limited, priority 1974, dated 1979)
≈ marks a conversion by molar mass, not a printed value. Read-outs that look alike come from different tables or passages of the source.

Experiments:
Type in all cases: cell-based
Serratia No. 72 = assay: Minimum Inhibitory Concentration, Serratia No. 72
Method: (§1) anti-microbial activity tests were carried out on the compounds obtained in the Examples.

[1] = test system: Klebsiella pneumoniae 602; assay: Minimum Inhibitory Concentration, Klebsiella pneumoniae 602
Method: as §1

[2] = test system: Staphylococcus aureus FS 289; assay: Minimum Inhibitory Concentration, Staphylococcus aureus FS 289
Method: as §1
*Staphylococcus aureus FS 289: strain resistant to penicillin

[3] = test system: Staphylococcus aureus 209 P; assay: Minimum Inhibitory Concentration, Staphylococcus aureus 209 P; settings: for MIC: read-out: Minimum Inhibitory Concentration
Method: as §1

[4] = test system: Pseudomonas aeruginosa 104; assay: Minimum Inhibitory Concentration, Pseudomonas aeruginosa 104
Method: as §1

Escherichia coli NIHJ = assay: Minimum Inhibitory Concentration, Escherichia coli NIHJ; settings: for MIC: read-out: Minimum Inhibitory Concentration
Method: as §1

Proteus vulgaris HX 19 = assay: Minimum Inhibitory Concentration, Proteus vulgaris HX 19
Method: as §1

[5] = test system: Enterobacter aerogeneus No. 75; assay: Minimum Inhibitory Concentration, Enterobacter aerogeneus No. 75
Method: as §1

[6] = Klebsiella pneumoniae, 602, Klebsiella pneumoniae 602, read-out: Minimum Inhibitory Concentration
[7] = FS289, Staphylococcus aureus FS 289, strain resistant to penicillin, read-out: Minimum Inhibitory Concentration
[8] = Pseudomonas aeruginosa 104, read-out: Minimum Inhibitory Concentration
[9] = HX19, Proteus vulgaris HX 19, read-out: Minimum Inhibitory Concentration
[10] = Enterobacter aerogeneus No. 75, read-out: Minimum Inhibitory Concentration
[11] = Staphylococcus aureus, FS289, read-out: Minimum Inhibitory Concentration

Row | MIC (Serratia No. 72) [µg/mL] | MIC [1, 6] [µg/mL] | MIC [2, 7] [µg/mL] | MIC ([3]; Staphylococcus aureus 209 P) [µg/mL] | MIC [4, 8] [µg/mL] | MIC (Escherichia coli NIHJ; Escherichia coli NIHJ) [µg/mL] | MIC (Proteus vulgaris HX 19; [9]) [µg/mL] | MIC [5, 10] [µg/mL] | SMILES | other results
1 | > 200 | 25 (≈ 44.9 µM) | 6.25 (≈ 11.2 µM) | 0.78 (≈ 1.4 µM) | 12.5 (≈ 22.5 µM) | 25 (≈ 44.9 µM) | 0.39 (≈ 0.701 µM) | 25 (≈ 44.9 µM) | CC(=O)OCC1=C(C(=O)O)N2C(=O)C(NC(=O)C(NC(=O)c3cnccc3O)c3ccc(CO)cc3)C2SC1 (racemic) [Example 88, 7-[DL-α-(4-Hydroxypyridine-3-carbonamido)-α-p-hydroxymethylphenylacetamido]cephalosporanic Acid] | –
2 | > 200 | 25 (≈ 39.8 µM) | 6.25 (≈ 9.94 µM) | 0.78 (≈ 1.24 µM) | 12.5 (≈ 19.9 µM) | 12.5 (≈ 19.9 µM) | 0.39 (≈ 0.62 µM) | 12.5 (≈ 19.9 µM) | Cc1nnc(SCC2=C(C(=O)O)N3C(=O)C(NC(=O)C(NC(=O)c4cnccc4O)c4ccc(CO)cc4)C3SC2)s1 (racemic) [Example 90, 7-[DL-α-(4-Hydroxypyridine-3carbonamido)-α -p-hydroxymethylphenylacetamido]-3-(2-methyl-1,3,4-thiadiazol-5-yl)thiomethyl-3-cephem-4-carboxylic Acid] | –
3 | > 200 | 12.5 (≈ 21.4 µM) | 6.25 (≈ 10.7 µM) | 0.39 (≈ 0.667 µM) | 6.25 (≈ 10.7 µM) | 12.5 (≈ 21.4 µM) | 0.39 (≈ 0.667 µM) | 25 (≈ 42.8 µM) | CC(=O)OCC1=C(C(=O)O)N2C(=O)[C@@H](NC(=O)[C@H](NC(=O)c3cnccc3O)c3cccc(NC(N)=O)c3)[C@H]2SC1 [Example 2] | –
4 | > 200 | 25 (≈ 42.8 µM) | 6.25 (≈ 10.7 µM) | 0.39 (≈ 0.667 µM) | 12.5 (≈ 21.4 µM) | 25 (≈ 42.8 µM) | 0.39 (≈ 0.667 µM) | 25 (≈ 42.8 µM) | CC(=O)OCC1=C(C(=O)O)N2C(=O)[C@@H](NC(=O)[C@H](NC(=O)c3cccnc3O)c3ccc(NC(N)=O)cc3)[C@H]2SC1 [Example 3] | –
5 | 50 (≈ 77 µM) | 12.5 (≈ 19.2 µM) | 6.25 (≈ 9.62 µM) | 0.78 (≈ 1.2 µM) | 6.25 (≈ 9.62 µM) | 6.25 (≈ 9.62 µM) | 0.39 (≈ 0.6 µM) | 12.5 (≈ 19.2 µM) | CC(=O)OCC1=C(C(=O)O)N2C(=O)[C@@H](NC(=O)[C@H](NC(=O)c3cnc4nc(C)ccc4c3O)c3ccc(NC(N)=O)cc3)[C@H]2SC1 [Example 8] | –
6 | 50 (≈ 76.1 µM) | 6.25 (≈ 9.52 µM) | 6.25 (≈ 9.52 µM) | 0.39 (≈ 0.594 µM) | 6.25 (≈ 9.52 µM) | 6.25 (≈ 9.52 µM) | 0.1 (≈ 0.152 µM) | 12.5 (≈ 19 µM) | Cc1nnc(SCC2=C(C(=O)O)N3C(=O)[C@@H](NC(=O)[C@H](NC(=O)c4cnccc4O)c4ccc(NC(N)=O)cc4)[C@H]3SC2)s1 [Example 12, 7-[D-α-(4-Hydroxypyridine-3-carboxyamido)-α-(p-ureidophenyl)acetamido]-3-(2-methyl-1,3,4-thiadiazol-5-yl)thiomethyl-3-cephem-4-carboxylic Acid] | –

Further lines, the compound ahead of its results:

Row | SMILES | MIC (Serratia No. 72) [µg/mL] | MIC [1, 6] [µg/mL] | MIC [2, 7] [µg/mL] | MIC ([3]; Staphylococcus aureus 209 P) [µg/mL] | MIC [4, 8] [µg/mL] | MIC (Escherichia coli NIHJ; Escherichia coli NIHJ) [µg/mL] | MIC (Proteus vulgaris HX 19; [9]) [µg/mL] | MIC [5, 10] [µg/mL] | other results
7 | CC(=O)OCC1=C(C(=O)O)N2C(=O)C(NC(=O)C(NC(=O)c3cnc4cccnc4c3O)c3ccc(CO)cc3)C2SC1 (racemic) [Example 89, 7-[DL-α-(4-Hydroxy-1,5-naphthyridine-3-carbonamido)-α-p-hydroxymethylphenylacetamido]cephalosporanic Acid] | 50 (≈ 82.3 µM) | 1.56 (≈ 2.57 µM) | 6.25 (≈ 10.3 µM) | 1.56 (≈ 2.57 µM) | 6.25 (≈ 10.3 µM) | 3.13 (≈ 5.15 µM) | 0.78 (≈ 1.28 µM) | 6.25 (≈ 10.3 µM) | –
8 | CC(=O)OCC1=C(C(=O)O)N2C(=O)[C@@H](NC(=O)[C@H](N)c3ccccc3)[C@H]2SC1 [CEG, reference compound] | > 200 | 3.13 (≈ 7.72 µM) | 12.5 (≈ 30.8 µM) | 1.56 (≈ 3.85 µM) | > 200 | 12.5 (≈ 30.8 µM) | 12.5 (≈ 30.8 µM) | 50 (≈ 123 µM) | –
9 | CC(=O)OCC1=C(C(=O)O)N2C(=O)[C@@H](NC(=O)Cc3cccs3)[C@H]2SC1 [CET, reference compound] | > 200 | – | – | – | – | – | – | – | MIC ([1]; Klebsiella pneumoniae, 602, read-out: Minimum Inhibitory Concentration): 0.78 µg/mL (≈ 1.97 µM); MIC [2, 11]: 0.78 µg/mL (≈ 1.97 µM); MIC ([3]; Staphylococcus aureus, 209P): 0.1 µg/mL (≈ 0.252 µM); MIC ([4]; Pseudomonas aeruginosa, 104, read-out: Minimum Inhibitory Concentration): > 200 µg/mL; MIC (Escherichia coli NIHJ; Escherichia coli): 12.5 µg/mL (≈ 31.5 µM); MIC (Proteus vulgaris HX 19; Proteus vulgaris, HX19, read-out: Minimum Inhibitory Concentration): 3.13 µg/mL (≈ 7.9 µM); MIC ([5]; Enterobacter, NO.75, read-out: Minimum Inhibitory Concentration): > 200 µg/mL
10 | Cc1nnc(SCC2=C(C(=O)O)N3C(=O)[C@@H](NC(=O)Cn4cnnn4)[C@H]3SC2)s1 [CEZ, reference compound] | > 200 | 0.78 (≈ 1.72 µM) | – | 0.2 (≈ 0.44 µM) | > 200 | – | 6.25 (≈ 13.8 µM) | 100 (≈ 220 µM) | MIC [2, 11]: 1.56 µg/mL (≈ 3.43 µM); MIC (Escherichia coli NIHJ; Escherichia coli): 1.56 µg/mL (≈ 3.43 µM)
11 | CC(=O)OCC1=C(C(=O)O)N2C(=O)[C@@H](NC(=O)[C@H](NC(=O)c3cnccc3O)c3ccc(NC(N)=O)cc3)[C@H]2SC1 [Example 1, 7-[D-α-(4-Hydroxypyridine-3-carboxyamido)-α-p-ureidophenylacetamido]cephalosporanic Acid] | > 200 | 12.5 (≈ 21.4 µM) | 3.13 (≈ 5.35 µM) | 0.39 (≈ 0.667 µM) | 6.25 (≈ 10.7 µM) | 12.5 (≈ 21.4 µM) | 0.2 (≈ 0.342 µM) | 25 (≈ 42.8 µM) | –
12 | CC(=O)OCC1=C(C(=O)[O-])N2C(=O)C(NC(=O)C(NC(=O)c3ccnnc3O)c3ccc(NC(N)=O)cc3)C2SC1.[Na+] (stereo not shown) [Example 4] | – | – | – | – | – | – | – | – | Minimum Inhibitory Concentration (Serratia No. 72): 100 µg/mL; Minimum Inhibitory Concentration ([1]; Klebsiella pneumoniae 602): 6.25 µg/mL; Minimum Inhibitory Concentration ([2]; Staphylococcus aureus FS 289, strain resistant to penicillin): 6.25 µg/mL; Minimum Inhibitory Concentration ([3]; Staphylococcus aureus 209 P): 0.39 µg/mL; Minimum Inhibitory Concentration ([4]; Pseudomonas aeruginosa 104): 25 µg/mL; Minimum Inhibitory Concentration (Escherichia coli NIHJ; Escherichia coli NIHJ): 6.25 µg/mL; Minimum Inhibitory Concentration (Proteus vulgaris HX 19; Proteus vulgaris HX 19): 0.2 µg/mL; Minimum Inhibitory Concentration ([5]; Enterobacter aerogeneus No. 75): 50 µg/mL
13 | CC(=O)OCC1=C(C(=O)O)N2C(=O)[C@@H](NC(=O)[C@H](NC(=O)c3cncnc3O)c3ccc(NC(N)=O)cc3)[C@H]2SC1 [Example 5] | 200 (≈ 342 µM) | 12.5 (≈ 21.3 µM) | 6.25 (≈ 10.7 µM) | 0.39 (≈ 0.666 µM) | 12.5 (≈ 21.3 µM) | 12.5 (≈ 21.3 µM) | 0.39 (≈ 0.666 µM) | 50 (≈ 85.4 µM) | –
14 | CC(=O)OCC1=C(C(=O)O)N2C(=O)[C@@H](NC(=O)[C@H](NC(=O)c3cnc(O)nc3O)c3ccc(NC(N)=O)cc3)[C@H]2SC1 [Example 6] | 200 (≈ 332 µM) | 12.5 (≈ 20.8 µM) | 6.25 (≈ 10.4 µM) | 0.39 (≈ 0.648 µM) | 12.5 (≈ 20.8 µM) | 12.5 (≈ 20.8 µM) | 0.2 (≈ 0.332 µM) | 25 (≈ 41.6 µM) | –
15 | CC(=O)OCC1=C(C(=O)O)N2C(=O)[C@@H](NC(=O)[C@H](NC(=O)c3cnc4cccnc4c3O)c3ccc(NC(N)=O)cc3)[C@H]2SC1 [Example 7] | 50 (≈ 78.7 µM) | 3.13 (≈ 4.92 µM) | 6.25 (≈ 9.83 µM) | 0.78 (≈ 1.23 µM) | 6.25 (≈ 9.83 µM) | 3.13 (≈ 4.92 µM) | 0.78 (≈ 1.23 µM) | 6.25 (≈ 9.83 µM) | –
16 | CC(=O)OCC1=C(C(=O)O)N2C(=O)[C@@H](NC(=O)[C@H](NC(=O)c3nnc4ccccc4c3O)c3ccc(NC(N)=O)cc3)[C@H]2SC1 [Example 9] | 50 (≈ 78.7 µM) | 12.5 (≈ 19.7 µM) | 6.25 (≈ 9.83 µM) | 0.78 (≈ 1.23 µM) | 12.5 (≈ 19.7 µM) | 12.5 (≈ 19.7 µM) | 0.39 (≈ 0.614 µM) | 12.5 (≈ 19.7 µM) | –
17 | Cn1nnnc1SCC1=C(C(=O)O)N2C(=O)[C@@H](NC(=O)[C@H](NC(=O)c3cnccc3O)c3ccc(NC(N)=O)cc3)[C@H]2SC1 [Example 13, 7-[D-α-(4-Hydroxypyridine-3-carboxyamido)-α-(p-ureidophenyl)acetamido]-3-(1-methyltetrazol-5-yl)-thiomethyl-3-cephem-4-carboxylic Acid] | 50 (≈ 78 µM) | 3.13 (≈ 4.89 µM) | 6.25 (≈ 9.76 µM) | 0.39 (≈ 0.609 µM) | 6.25 (≈ 9.76 µM) | 6.25 (≈ 9.76 µM) | 0.2 (≈ 0.312 µM) | 12.5 (≈ 19.5 µM) | –
